Experimental data published in ChEMBL document CHEMBL1201862, “PubChem BioAssay data set” (2004).
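Each compound was tested at five concentrations against cells in 96-well plates for 48 hours. Abbreviation: GI50, concentration required for 50% inhibition of growth.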 The source made the active and inactive calls. No stated cut-off is given here; in the data, active = GI50 up to about 1.1 µM and inactive = higher.

How the values were obtained:
Assay in all cases: NCI-60 cell line screen, 48 h
M14 = tested on: M14
U-251 = tested on: U-251
HCT-116 = tested on: HCT-116
HCT-15 = tested on: HCT-15
MOLT-4 = tested on: MOLT-4
MCF7 = tested on: MCF7
PC-3 = tested on: PC-3
SK-MEL-5 = tested on: SK-MEL-5
BT-549 = tested on: BT-549
RPMI-8226 = tested on: RPMI-8226
OVCAR-8 = tested on: OVCAR-8
ACHN = tested on: ACHN
Hs-578T = tested on: Hs-578T
MDA-MB-231 = tested on: MDA-MB-231
HT-29 = tested on: HT-29
SNB-19 = tested on: SNB-19
SK-MEL-28 = tested on: SK-MEL-28
T47D = tested on: T47D
NCI-H226 = tested on: NCI-H226
SF-295 = tested on: SF-295
OVCAR-5 = tested on: OVCAR-5
786-0 = tested on: 786-0
OVCAR-3 = tested on: OVCAR-3
NCI-H522 = tested on: NCI-H522
Malme-3M = tested on: Malme-3M
SR = tested on: SR
LOX IMVI = tested on: LOX IMVI
CCRF-CEM = tested on: CCRF-CEM
UACC-62 = tested on: UACC-62
HL-60 = tested on: HL-60
KM12 = tested on: KM12
TK-10 = tested on: TK-10
A549 = tested on: A549
SF-539 = tested on: SF-539
NCI-H23 = tested on: NCI-H23
SF-268 = tested on: SF-268
IGROV-1 = tested on: IGROV-1
OVCAR-4 = tested on: OVCAR-4
SK-MEL-2 = tested on: SK-MEL-2
NCI-H460 = tested on: NCI-H460
DU-145 = tested on: DU-145
HOP-92 = tested on: HOP-92
K562 = tested on: K562
RXF 393 = tested on: RXF 393
COLO 205 = tested on: COLO 205
HOP-62 = tested on: HOP-62
SN12C = tested on: SN12C
A498 = tested on: A498
NCI/ADR-RES = tested on: NCI/ADR-RES
SNB-75 = tested on: SNB-75
SW-620 = tested on: SW-620
UACC-257 = tested on: UACC-257
EKVX = tested on: EKVX
MDA-MB-435 = tested on: MDA-MB-435
CAKI-1 = tested on: CAKI-1
SK-OV-3 = tested on: SK-OV-3
MDA-N = tested on: MDA-N
HCC 2998 = tested on: HCC 2998
UO-31 = tested on: UO-31

Cc1ccc(CSC(=N)Nc2ccccc2)cc1C
GI50 (M14): 19.1 µM (inactive)
GI50 (U-251): 16.1 µM (inactive)
GI50 (HCT-116): 16.6 µM (inactive)
GI50 (HCT-15): 23.5 µM
GI50 (MOLT-4): 24.2 µM (inactive)
GI50 (MCF7): 18.7 µM (inactive)
GI50 (PC-3): 22.5 µM (inactive)
GI50 (SK-MEL-5): 16.1 µM (inactive)
GI50 (BT-549): 22.3 µM (inactive)
GI50 (RPMI-8226): 22.5 µM (inactive)
GI50 (OVCAR-8): 19 µM (inactive)
GI50 (ACHN): 33.3 µM (inactive)
GI50 (Hs-578T): 23.2 µM (inactive)
GI50 (MDA-MB-231): 16.2 µM (inactive)
GI50 (HT-29): 19.1 µM (inactive)
GI50 (SNB-19): 23.7 µM (inactive)
GI50 (SK-MEL-28): 24.7 µM (inactive)
GI50 (T47D): 17.2 µM (inactive)
GI50 (NCI-H226): 20.9 µM (inactive)
GI50 (SF-295): 25 µM (inactive)
GI50 (OVCAR-5): 20.2 µM (inactive)
GI50 (786-0): 19.3 µM (inactive)
GI50 (OVCAR-3): 19.3 µM (inactive)
GI50 (NCI-H522): 15.8 µM (inactive)
GI50 (Malme-3M): 17.1 µM (inactive)
GI50 (SR): 19.5 µM (inactive)
GI50 (LOX IMVI): 18.9 µM (inactive)
GI50 (CCRF-CEM): 20.2 µM (inactive)
GI50 (UACC-62): 13.1 µM (inactive)
GI50 (HL-60): 30.3 µM (inactive)
GI50 (KM12): 19.5 µM (inactive)
GI50 (TK-10): 28.5 µM (inactive)
GI50 (A549): 28.3 µM (inactive)
GI50 (SF-539): 22.9 µM (inactive)
GI50 (NCI-H23): 22.9 µM (inactive)
GI50 (SF-268): 17 µM (inactive)
GI50 (IGROV-1): 23.2 µM (inactive)
GI50 (OVCAR-4): 16.1 µM (inactive)
GI50 (SK-MEL-2): 16.7 µM (inactive)
GI50 (NCI-H460): 18.6 µM (inactive)
GI50 (DU-145): 20.7 µM (inactive)
GI50 (HOP-92): 16 µM (inactive)
GI50 (K562): 21.2 µM (inactive)
GI50 (RXF 393): 15.7 µM (inactive)
GI50 (COLO 205): 16.3 µM (inactive)
GI50 (HOP-62): 23.7 µM (inactive)
GI50 (SN12C): 18.9 µM (inactive)
GI50 (A498): 16.6 µM (inactive)
GI50 (NCI/ADR-RES): 20.4 µM (inactive)
GI50 (SNB-75): 25.8 µM (inactive)
GI50 (SW-620): 38.3 µM (inactive)
GI50 (UACC-257): 17.4 µM (inactive)
GI50 (EKVX): 26.4 µM (inactive)
GI50 (MDA-MB-435): 15.2 µM (inactive)
GI50 (CAKI-1): 19.9 µM (inactive)
GI50 (SK-OV-3): 24.8 µM (inactive)
GI50 (MDA-N): 18.9 µM (inactive)

CCOC(=O)/C(=N\OC)C(O)C(F)(F)F (configuration not stated)
GI50 (M14): > 100 µM (inactive)
GI50 (HCC 2998): > 100 µM (inactive)
GI50 (U-251): > 100 µM (inactive)
GI50 (HCT-116): > 100 µM (inactive)
GI50 (HCT-15): > 100 µM
GI50 (MOLT-4): > 100 µM (inactive)
GI50 (MCF7): > 100 µM (inactive)
GI50 (PC-3): > 100 µM (inactive)
GI50 (SK-MEL-5): > 100 µM (inactive)
GI50 (BT-549): > 100 µM (inactive)
GI50 (RPMI-8226): > 100 µM (inactive)
GI50 (OVCAR-8): > 100 µM (inactive)
GI50 (ACHN): > 100 µM (inactive)
GI50 (Hs-578T): > 100 µM (inactive)
GI50 (MDA-MB-231): > 100 µM (inactive)
GI50 (HT-29): > 100 µM (inactive)
GI50 (UO-31): > 100 µM (inactive)
GI50 (SNB-19): > 100 µM (inactive)
GI50 (SK-MEL-28): > 100 µM (inactive)
GI50 (T47D): > 100 µM (inactive)
GI50 (NCI-H226): > 100 µM (inactive)
GI50 (SF-295): > 100 µM (inactive)
GI50 (OVCAR-5): > 100 µM (inactive)
GI50 (786-0): > 100 µM (inactive)
GI50 (NCI-H522): > 100 µM (inactive)
GI50 (Malme-3M): > 100 µM (inactive)
GI50 (SR): > 100 µM (inactive)
GI50 (LOX IMVI): > 100 µM (inactive)
GI50 (CCRF-CEM): > 100 µM (inactive)
GI50 (UACC-62): > 100 µM (inactive)
GI50 (HL-60): > 100 µM (inactive)
GI50 (KM12): > 100 µM (inactive)
GI50 (TK-10): > 100 µM (inactive)
GI50 (A549): > 100 µM (inactive)
GI50 (SF-539): > 100 µM (inactive)
GI50 (NCI-H23): > 100 µM (inactive)
GI50 (SF-268): > 100 µM (inactive)
GI50 (IGROV-1): > 100 µM (inactive)
GI50 (SK-MEL-2): > 100 µM (inactive)
GI50 (DU-145): > 100 µM (inactive)
GI50 (K562): > 100 µM (inactive)
GI50 (RXF 393): > 100 µM (inactive)
GI50 (COLO 205): > 100 µM (inactive)
GI50 (HOP-62): > 100 µM (inactive)
GI50 (SN12C): > 100 µM (inactive)
GI50 (A498): > 100 µM (inactive)
GI50 (NCI/ADR-RES): > 100 µM (inactive)
GI50 (SNB-75): > 100 µM (inactive)
GI50 (SW-620): > 100 µM (inactive)
GI50 (UACC-257): > 100 µM (inactive)
GI50 (EKVX): > 100 µM (inactive)
GI50 (MDA-MB-435): > 100 µM (inactive)
GI50 (CAKI-1): > 100 µM (inactive)
GI50 (SK-OV-3): > 100 µM (inactive)
GI50 (MDA-N): > 100 µM (inactive)

COc1ccc(S(=O)(=O)NC(CCC(=O)NN)C(=O)NN)cc1 (configuration not stated)
GI50 (M14): > 100 µM (inactive)
GI50 (U-251): > 100 µM (inactive)
GI50 (HCT-116): > 100 µM (inactive)
GI50 (HCT-15): > 100 µM
GI50 (MOLT-4): > 100 µM (inactive)
GI50 (MCF7): > 100 µM (inactive)
GI50 (PC-3): > 100 µM (inactive)
GI50 (SK-MEL-5): > 100 µM (inactive)
GI50 (BT-549): > 100 µM (inactive)
GI50 (RPMI-8226): > 100 µM (inactive)
GI50 (OVCAR-8): > 100 µM (inactive)
GI50 (ACHN): > 100 µM (inactive)
GI50 (Hs-578T): > 100 µM (inactive)
GI50 (MDA-MB-231): > 100 µM (inactive)
GI50 (HT-29): > 100 µM (inactive)
GI50 (UO-31): > 100 µM (inactive)
GI50 (SNB-19): > 100 µM (inactive)
GI50 (SK-MEL-28): > 100 µM (inactive)
GI50 (T47D): > 100 µM (inactive)
GI50 (SF-295): > 100 µM (inactive)
GI50 (OVCAR-5): > 100 µM (inactive)
GI50 (786-0): > 100 µM (inactive)
GI50 (OVCAR-3): > 100 µM (inactive)
GI50 (NCI-H522): > 100 µM (inactive)
GI50 (Malme-3M): > 100 µM (inactive)
GI50 (SR): > 100 µM (inactive)
GI50 (LOX IMVI): > 100 µM (inactive)
GI50 (CCRF-CEM): > 100 µM (inactive)
GI50 (UACC-62): > 100 µM (inactive)
GI50 (HL-60): > 100 µM (inactive)
GI50 (KM12): > 100 µM (inactive)
GI50 (TK-10): > 100 µM (inactive)
GI50 (A549): > 100 µM (inactive)
GI50 (SF-539): > 100 µM (inactive)
GI50 (NCI-H23): > 100 µM (inactive)
GI50 (IGROV-1): > 100 µM (inactive)
GI50 (OVCAR-4): > 100 µM (inactive)
GI50 (SK-MEL-2): > 100 µM (inactive)
GI50 (NCI-H460): > 100 µM (inactive)
GI50 (DU-145): > 100 µM (inactive)
GI50 (HOP-92): > 100 µM (inactive)
GI50 (K562): > 100 µM (inactive)
GI50 (COLO 205): > 100 µM (inactive)
GI50 (HOP-62): > 100 µM (inactive)
GI50 (SN12C): > 100 µM (inactive)
GI50 (A498): > 100 µM (inactive)
GI50 (NCI/ADR-RES): > 100 µM (inactive)
GI50 (SNB-75): > 100 µM (inactive)
GI50 (SW-620): > 100 µM (inactive)
GI50 (UACC-257): > 100 µM (inactive)
GI50 (EKVX): > 100 µM (inactive)
GI50 (MDA-MB-435): > 100 µM (inactive)
GI50 (CAKI-1): > 100 µM (inactive)
GI50 (SK-OV-3): > 100 µM (inactive)
GI50 (MDA-N): > 100 µM (inactive)
